What was measured:
[1] = test system: HIV-1ADA; test: Anti-HIV activity in primary human monocytes, day 9 (Table IX, FIG. 12C); assay type: cell-based
Protocol: Monocytes infected with HIV-1ADA were cultured in the presence of CNI-H0294 and CNI-H3094 in various concentrations. Nine days after infection, RT activity in culture supernatants was quantified. The results are presented as percent of total RT activity in untreated cultures (control). Three independent samples were assayed for each drug concentration, and the standard deviation was less than 15%.
[…] A 50% inhibitory concentration (IC50) was determined at day 9 after infection.

[2] = molecular target: T1, recombinant RT (p51/p66 heterodimer) (Human immunodeficiency virus type 1 group M subtype B, UniProt P04585); test: Binding of [14C]-CNI-H0294 to recombinant RT in solution (immunoprecipitation); design: species or system HIV-1; conditions: 0.2 μM RT, 3.3 μM labeled CNI-H0294, increasing unlabeled compound
T1 construct: recombinant MA or RT (a p51/p66 heterodimer)
Protocol: Twenty nmol of [^14C]-CNI-HO294 were mixed with 0.28 nmol of recombinant MA or RT (a p51/p66 heterodimer) in 40 μl of binding buffer. Samples were incubated for 2 h at 37° C. in the presence or absence of 200 nmol of unlabeled CNI-H0294. MA and RT proteins were immunoprecipitated using protein G agarose and sheep polyclonal anti-MA (αMA) or rabbit anti-RT (αRT) sera, respectively. Pre-immune sera (PI) was used as control. Bound material was eluted from protein G using 0.1 M glycine buffer [pH 2.8] and the radioactivity in the eluate was quantified in a scintillation counter.
Recombinant RT (0.2 μM) was incubated with 3.3 μM of [^14C ]-labeled CNI-H0294 and increasing concentrations of unlabeled (cold) CNI-3094. The amount of [^14C]-CNI-H0294 that bound to RT was measured as in FIG. 11.
0.28 nanomoles of recombinant MA or RT [p66/p51 ] dimer were mixed with 20 nmol of [^14C] CNI-HO294 (specific activity 5×10^4 cpm/nmol) and incubated 2 hr at room temperature in 40 μl of binding buffer (PBS supplemented with 1% BSA, 0.1% Tween 20, 1 μg/ml leupeptin, 1 μg/ml aprotinin, 1 mM PMSF). Sheep anti-MA or rabbit anti-RT sera (both obtained from NIH AIDS Research and Reference Reagent Program) or pre-immune control sera were then added (at 1:100 dilution) and incubation continued for another 1 hr at room temperature. Immune complexes were precipitated with protein G-agarose, washed, and then eluted with 0.1 M glycine, pH 2.8. Radioactivity of the eluate was measured in a scintillation counter.

[3] = test system: HIV-1 pre-integration complexes / karyopherin α; test: Binding of HIV-1 pre-integration complexes to GST-karyopherin α; assay type: biochemical
Protocol: Cytoplasmic lysates of H9 cells infected with HIV-1RF (upper panel) or HIV-like pseudovirions (bottom panel) were treated for 2 hours with various concentrations of CNI-H0294, and were then mixed with GST-karyopherin α immobilized on glutathione Sepharose beads. HIV-1 DNA or RNA that co-precipitated with karyopherin α was quantified as in A and B.
Cytoplasmic lysates prepared from H9 cells infected with HIV-1RF were treated with 10 μM CNI-H3094 (lane 1) or with 1 μM CNI-H0294 and 10 μM (lane 5), 5 μM (lane 4), 1 μM (lane 3), or no CNI-H3094 (lane 2). The amount of pre-integration complexes available for interaction with karyopherin α was quantified as in FIG. 10.
H9 cells were infected with equal amounts of wild-type HIV-1NLHX or with mutant HIV-1NLHX that lack Vpr (Vpr^−) or carry a mutation that inactivates the MA NLS (MA NLS^−). Infected cells were washed and incubated for 4 h. An aliquot of each sample was used to quantify the total HIV-1 DNA (FIG. 14A) and the rest was used to prepare cytoplasmic extracts. Extracts were incubated with 1 μM CNI-H0294 (FIG. 14B, lanes 2, 4, 6, 8) or were left untreated (lanes 1, 3, 5, 7). The amount of pre-integration complexes available for binding to karyopherin α was determined as in FIG. 10.
H9 cells were infected with HIV-1 or HIV-like pseudovirions (Haffar, et al., 1990, J. Virol., 64:2653-2659) at a multiplicity adjusted according to p24 content (50 ng p24 per 10^6 cells) The MA NLS^− virus contains substitutions of isoleucine residues for lysines in positions 26 and 27 of MA in an NLHX backbone (Westervelt., et al., 1992, J. Virol. 66:2577-2582), thus inactivating the NLS. The Vpr^− virus has the initiating ATG of the vpr gene changed to GTG, thus abolishing expression of this gene. The ΔMA NLS pseudovirions have leucine substituting for lysine in position 28 of MA. This mutation abrogates nuclear translocation of HIV-1 gag RNA in growth-arrested H9 cells infected with pseudovirions. After a 1 hour absorption, excess viruses or pseudovirions were washed away, and cells were incubated for an additional 2-3 hour period at 37° C. prior to analysis.
Cytoplasmic extracts were prepared by lysing cells in cold extraction buffer (10 mM KCl, 10 mM Tris-HCl [pH 7.6], 0.5 mM MgCl2, 1 μg/ml each of leupeptin and aprotinin, and 1 MM phenylmethylsulfonyl fluoride [PMSF]) by 20-30 strokes of a Dounce homogenizer under the control of phase-contrast microscopy. After removal of nuclei, cytoplasmic extract was cleared by centrifugation at 15,000 g for 10 min.
Cytoplasmic extracts prepared from HIV-1-or pseudovirion-infected H9 cells were adjusted to 0.14 M NaCl, 0.1% Tween 20 and precleared with glutathione-Sepharose beads for 30 min. at room temperature. Karyopherin α was expressed as a fusion protein with glutathione S-transferase (GST) which can bind glutathione beads in solution. GST-karyopherin α immobilized on Sepharose beads was then added (about 50 μg of immobilized karyopherin α per extract from 108 infected cells) and the mixture was incubated at room temperature for another 30 min. Beads were then pelleted by centrifugation and washed 3 times with PBS supplemented with 0.1% Tween 20, 1 μg/ml each of leupeptin and aprotinin, and 1 mM PMSF. HIV-1 DNA was isolated from the beads by SDS-proteinase K treatment with subsequent phenol-chloroform extraction, while pseudovirion gag RNA was isolated by RNazol (Biotecx Laboratories Inc.).

COC(=O)c1cc(Nc2cc(C)nc(N)n2)cc(C(=O)OC)c1 [CNI-H3094]
IC50 ([1]; Human immunodeficiency virus 1, Monocyte, 216 h, day 9 after infection, >10 μM = 50% inhibition not achieved at maximal concentration, read-out: IC50): > 10 µM | effect on anti-HIV activity of CNI-H0294 in monocyte cultures ([1]; RT activity nine days after infection (FIG. 12C)): eliminated the inhibitory effect of CNI-H0294 on HIV-1 replication | competition with [14C]-labeled CNI-H0294 for binding to RT [2]: inhibits binding of [^14C]-labeled CNI-H0294 to RT in a dose-dependent manner | inhibition of binding of HIV-1 pre-integration complexes to karyopherin α ([3]; 10 μM alone (FIG. 12B, lane 1)): did not inhibit | effect on CNI-H0294 inhibition of pre-integration complex binding to karyopherin α ([3]; 5-fold excess over 1 μM CNI-H0294): reduced significantly the inhibitory effect of CNI-H0294 | effect on CNI-H0294 inhibition of pre-integration complex binding to karyopherin α ([3]; 10-fold excess over 1 μM CNI-H0294): completely eliminated the inhibitory effect

From patent publication US6649797B2, “Compounds and methods of use to treat infectious diseases” (The Picower Institute for Medical Research, priority 1996, dated 2003)
